In ChEMBL document CHEMBL4627383, “Optimization of 2-(1H-imidazo-2-yl)piperazines series of Trypanosoma brucei growth inhibitors as potential treatment for the second stage of HAT” (Bioorg Med Chem Lett, 2020):
Activity calls are given as the source filed them. The rule behind the calls is not given here.

Columns and labels:
Trypanosoma brucei [1] = assay: Antitrypanosomal activity against Trypanosoma brucei assessed as parasite growth inhibition in presence of 10% FBS; assay type: functional, organism-based
[2] = Cmax in C57BL6 mouse at 30 mg/kg, ip; assay type: ADME, organism-based; design: dose 30 mg/kg, route intraperitoneal; settings: in vivo
Trypanosoma brucei [3] = assay: Antitrypanosomal activity against Trypanosoma brucei assessed as parasite growth inhibition in presence of 50% mouse serum; assay type: functional, organism-based
[4] = Half life in human hepatocytes; assay type: ADME, cell-based, Hepatocyte
[5] = Protein binding in mouse plasma assessed as unbound fraction; assay type: ADME, cell-free
[6] = (§1) Cytotoxicity against HUVEC assessed as reduction in cell viability; assay type: cell-based; settings: human
[7] = Half life in mouse hepatocytes; assay type: ADME, cell-based, Hepatocyte
[8] = Oral bioavailability in C57BL6 mouse at 30 mg/kg; assay type: ADME, organism-based; settings: in vivo
[9] = (§2) Cytotoxicity against human HeLa cells assessed as reduction in cell viability; assay type: cell-based; settings: HeLa cells
[10] = Permeability in porcine brain endothelial cells/rat astrocytes model system; assay type: ADME, cell-based; settings: read-out: permeability
[11] = test system: Trypanosoma brucei rhodesiense; assay: […] activity against Trypanosoma brucei rhodesiense assessed as reduction in parasite viability after 2 hrs by time kill assay; assay type: functional, organism-based
HUVEC = assay: as §1; assay type: cell-based; settings: human
HeLa = assay: as §2; assay type: cell-based; settings: hela

EC50 (Trypanosoma brucei [1]) [nM] | Compound | also measured
23 | COc1ccc2[nH]c(C)c(C(=O)N3CCN(CC4CCOC4)C[C@H]3c3ncc(-c4cc5ccccc5nc4OC)[nH]3)c2c1 (mixture of isomers) | 
180 | COc1ccc2nc(C(F)(F)F)n(C(=O)N3CCN(C4CCN(C)CC4)C[C@H]3c3ncc(-c4cc5ccccc5nc4OC)[nH]3)c2c1 | 
6 | COc1ccc2nc(C(F)(F)F)n(C(=O)N3CCN(Cc4cnccn4)C[C@H]3c3ncc(-c4cc5ccccc5nc4OC)[nH]3)c2c1 | 
51 | COc1ccc2nc(C(F)(F)F)n(CC(=O)N3CCN(CC4CCOC4)CCC3c3ncc(-c4cc5ccccc5nc4OC)[nH]3)c2c1 (stereo unspecified) | 
163 | COc1nc2ccccc2cc1-c1cnc([C@@H]2CN(CC3CCOC3)CCN2C(=O)n2c(C)nc3ccccc32)[nH]1 (stereo partly specified) | 
11 | COc1ccc2nc(C(F)(F)F)n(CC(=O)N3C[C@H](NC4CCOC4)CC[C@H]3c3ncc(-c4cc5ccccc5nc4OC)[nH]3)c2c1 (stereo partly specified) | 
7 | COc1ccc2nc(C(F)(F)F)n(CC(=O)N3CC[C@H](NC4CCOC4)C[C@H]3c3ncc(-c4cc5ccccc5nc4OC)[nH]3)c2c1 (stereo partly specified) | Cmax [2]: 5 µM; EC50 (Trypanosoma brucei [3]): 232 nM; half-life [4]: 3.1 h; fraction unbound [5]: 0.047; CC50 [6]: 3680 nM; half-life [7]: 4 h; bioavailability [8]: 103%; CC50 [9]: 7490 nM
2 | COc1ccc2nc(C(F)(F)F)n(C(=O)N3CCN(Cc4nccs4)C[C@H]3c3ncc(-c4cc5ccccc5nc4OC)[nH]3)c2c1 | 
9 | COc1ccc2nc(C(F)(F)F)n(C(=O)N3CCN(CC4CCOC4)C[C@H]3c3ncc(-c4cc5ccccc5nc4OC)[nH]3)c2c1 (stereo partly specified) | 
20 | COc1nc2ccccc2cc1-c1cnc([C@@H]2CN(CC3CCOC3)CCN2C(=O)n2c(C(F)(F)F)nc3ccccc32)[nH]1 (stereo partly specified) | Cmax [2]: 6.9 µM; Papp [10]: 8.6 ×10⁻⁶ cm/s; EC50 (Trypanosoma brucei [3]): 850 nM; half-life [4]: 2.6 h; fraction unbound [5]: 0.0204; Activity [11]: Active; half-life [7]: 0.8 h; bioavailability [8]: 133%
355 | COc1ccc2nc(C(F)(F)F)n(CC(=O)N3CCS(=O)(=O)CC3c3ncc(-c4cc5ccccc5nc4OC)[nH]3)c2c1 (stereo unspecified) | 
32 | COc1ccc2nc(C)n(C(=O)N3CCN(CC4CCOC4)C[C@H]3c3ncc(-c4cc5ccccc5nc4OC)[nH]3)c2c1 (stereo partly specified) | 
 | COc1ccc2[nH]c(C)c(CC(=O)N3CCN(CC4CCOC4)CC3c3ncc(-c4ccc5ccccc5c4)[nH]3)c2c1 (stereo unspecified) | Activity (HUVEC): Non-Toxic; Activity (HeLa): Non-Toxic
659 | COc1ccc2nc(C(F)(F)F)n(CC(=O)N3CC[C@@H](N(C)C)C[C@H]3c3ncc(-c4cc5ccccc5nc4OC)[nH]3)c2c1 | 
384 | COc1nc2ccccc2cc1-c1cnc([C@@H]2CN(CC3CCOC3)CCN2C(=O)n2c(C)nc3cncnc32)[nH]1 (stereo partly specified) | 
98 | COc1ccc2nc(C(F)(F)F)n(CC(=O)N3CC[C@H](N(C)C)C[C@H]3c3ncc(-c4cc5ccccc5nc4OC)[nH]3)c2c1 | 
73 | COc1ccc2nc(C(F)(F)F)n(CC(=O)N3CCCCC3c3ncc(-c4cc5ccccc5nc4OC)[nH]3)c2c1 (stereo unspecified) | 
286 | COc1ccc2nc(C(F)(F)F)n(CC(=O)N3CCOCC3c3ncc(-c4cc5ccccc5nc4OC)[nH]3)c2c1 (stereo unspecified) | 
17 | COc1ccc2nc(C(F)(F)F)n(CC(=O)N3CC[C@H](NCC4CCOC4)C[C@H]3c3ncc(-c4cc5ccccc5nc4OC)[nH]3)c2c1 (stereo partly specified) | 
